From patent US6461997B1, “Triazole sulfones having herbicidal activity” (Monsanto Technology LLC, priority 1999, dated 2002)

How the values were obtained:
[1] = system: PANMI (wild proso millet); assay: Pre-emergence herbicidal activity, warm season; assay type: in vivo, Panicum miliaceum; details: GR80 = lowest tested rate (300, 100, 30, 10 g/ha) with 80% or greater inhibition; approx. 14 days after treating; 30/21° C.
Protocol: (§1) Tables 5 to 8 summarize results of tests conducted as described below to determine the pre-emergence herbicidal activity, in the form of a GR80 value, of illustrative compounds of this invention. […] Compounds of the invention were typically applied at rates of 300, 100, 30, and 10 g/ha. Where herbicidal activity was evident but 80% inhibition was not achieved at the highest rate tested, an asterisk (*) is shown in the following tables.
(§2) The pre-emergence tests were conducted by the following procedure. Topsoil was sieved to pass through a 1.27 cm screen. Fertilizer was added to the topsoil and the mixture was then sterilized by heating. The topsoil mixture was placed in a pot and compacted to a depth of 1.0 to 1.25 cm from the top of the pot. Seeds of each of several monocotyledonous and dicotyledonous annual plant species were placed on top of the soil. Additional soil was subsequently placed over the seeds to level-fill the pot. A known amount of each test compound dissolved or suspended in an appropriate organic solvent was diluted with a 50:50 mix of acetone and water and applied to the surface of the soil. After treatment the plants were placed in a greenhouse where they received 0.64 cm of overhead irrigation. All subsequent watering consisted of a light overhead mist and/or subirrigation as needed for germination and growth. Tables 5 and 6 below relate to warm season plant species which were placed after pre-emergence treatment in a greenhouse with a 30/21° C. day/night temperature regime. Tables 7 and 8 below relates to cool season plant species placed after pre-emergence treatment in a greenhouse or growth chamber with an 18/13° C. day/night temperature regime.
(§3) Approximately 14 days after planting and treating, the plants were observed and herbicidal efficacy recorded as percent inhibition by comparison with untreated plants.
(§4) The plant species usually regarded as weeds which were utilized in the tests are identified in the tables below according to the following legend, in which “d” indicates a dicotyledonous species and “m” a monocotyledonous species. All monocotyledonous species included in the tests herein are grasses.

[2] = system: GALAP (catchweed bedstraw); assay: Pre-emergence herbicidal activity, cool season; assay type: in vivo, Galium aparine; details: lowest tested rate with 80% or greater inhibition; rates 300, 100, 30, 10 g/ha; about 14 days
Protocol: as §1, §2, §3, §4

[3] = system: POLCO (wild buckwheat); assay: Pre-emergence herbicidal activity, cool season; assay type: in vivo, Polygonum convolvulus; details: lowest tested rate with 80% or greater inhibition; rates 300, 100, 30, 10 g/ha; about 14 days
Protocol: as §1, §2, §3, §4

[4] = system: SINAR (wild mustard); assay: Pre-emergence herbicidal activity, cool season; assay type: in vivo, Sinapis arvensis; details: lowest tested rate with 80% or greater inhibition; rates 300, 100, 30, 10 g/ha; about 14 days
Protocol: as §1, §2, §3, §4

[5] = system: VERPE (creeping speedwell); assay: Pre-emergence herbicidal activity, cool season; assay type: in vivo, Veronica persicaria; details: lowest tested rate with 80% or greater inhibition; rates 300, 100, 30, 10 g/ha; about 14 days
Protocol: as §1, §2, §3, §4

[6] = system: SASKR (russian thistle); assay: Pre-emergence herbicidal activity, cool season; assay type: in vivo, Salsola kali; details: lowest tested rate with 80% or greater inhibition; rates 300, 100, 30, 10 g/ha; about 14 days
Protocol: as §1, §2, §3, §4

[7] = system: STEME (common chickweed); assay: Pre-emergence herbicidal activity, cool season; assay type: in vivo, Stellaria media; details: lowest tested rate with 80% or greater inhibition; rates 300, 100, 30, 10 g/ha; about 14 days
Protocol: as §1, §2, §3, §4

[8] = system: LAMPU (purple deadnettle); assay: Pre-emergence herbicidal activity, cool season; assay type: in vivo, Lamium purpureum; details: lowest tested rate with 80% or greater inhibition; rates 300, 100, 30, 10 g/ha; about 14 days
Protocol: as §1, §2, §3, §4

[9] = system: AGSST (creeping bentgrass); assay: Pre-emergence herbicidal activity, cool season; assay type: in vivo, Agrostis stolonifera; details: GR80 = lowest tested rate (300, 100, 30, 10 g/ha) with 80% or greater inhibition; approx. 14 days after treating; 18/13° C.
Protocol: as §1, §2, §3, §4

[10] = system: ECHCG (barnyardgrass); assay: Pre-emergence herbicidal activity, warm season; assay type: in vivo, Echinochloa crus-galli; details: GR80 = lowest tested rate (300, 100, 30, 10 g/ha) with 80% or greater inhibition; approx. 14 days after treating; 30/21° C.
Protocol: as §1, §2, §3, §4

[11] = system: SETVI (green foxtail); assay: Pre-emergence herbicidal activity, cool season; assay type: in vivo, Setaria viridis; details: GR80 = lowest tested rate (300, 100, 30, 10 g/ha) with 80% or greater inhibition; approx. 14 days after treating; 18/13° C.
Protocol: as §1, §2, §3, §4

Structure (SMILES) | Pre-emergence activity (GR80) PANMI [1] [g/ha] | Pre-emergence activity GR80, GALAP [2] | Pre-emergence activity GR80, POLCO [3] | Pre-emergence activity GR80, SINAR [4] | Pre-emergence activity GR80, VERPE [5] | Pre-emergence activity GR80, SASKR [6] | Pre-emergence activity GR80, STEME [7] | Pre-emergence activity GR80, LAMPU [8] | Pre-emergence activity (GR80) AGSST [9] [g/ha] | Pre-emergence activity (GR80) ECHCG [10] [g/ha] | Pre-emergence activity (GR80) SETVI [11] [g/ha]
CCSC(F)(F)S(=O)(=O)c1ncn(C(=O)N(C)c2ccccc2)n1 [Example 50] | 300 | 100 g/ha | [empty] | [empty] | [empty] | [empty] | 300 g/ha | [empty] | 30 | – | –
COCCN(C)C(=O)n1cnc(S(=O)(=O)C(F)F)n1 [Example 29] | – | [empty] | [empty] | 300 g/ha | 100 g/ha | 300 g/ha | 300 g/ha | 300 g/ha | 300 | – | –
CN(C(=O)n1cnc(S(=O)(=O)C(F)(F)C(F)(F)Br)n1)c1ccccc1 [Example 74] | 300 | [empty] | [empty] | 300 g/ha | 300 g/ha | 300 g/ha | [empty] | 300 g/ha | – | – | –
C#CCN(C)C(=O)n1cnc(S(=O)(=O)C(F)(F)Cl)n1 [Example 90] | – | [empty] | [empty] | 300 g/ha | 10 g/ha | 30 g/ha | [empty] | [empty] | – | – | –
O=C(N1CCOCC1)n1cnc(S(=O)(=O)C(F)(F)C(F)(F)Br)n1 [Example 72] | – | [empty] | 300 g/ha | [empty] | [empty] | [empty] | [empty] | [empty] | – | – | –
CN(C(=O)n1cnc(S(=O)(=O)C(F)(F)C(F)F)n1)c1ccccc1 [Example 62] | – | [empty] | [empty] | [empty] | [empty] | [empty] | [empty] | 300 g/ha | – | – | –
C#CCN(C)C(=O)n1cnc(S(=O)(=O)C(F)(F)Br)n1 [Example 42] | 300 | 300 g/ha | [empty] | [empty] | [empty] | [empty] | [empty] | [empty] | 100 | – | –
CN(C(=O)n1cnc(S(=O)(=O)C(F)(F)Br)n1)c1ccccc1 [Example 38] | – | [empty] | [empty] | [empty] | [empty] | [empty] | [empty] | [empty] | – | – | –
O=C(N1CCOCC1)n1cnc(S(=O)(=O)C(F)(F)C(F)F)n1 [Example 60] | – | [empty] | [empty] | [empty] | [empty] | [empty] | [empty] | [empty] | – | – | –
C#CCN(C)C(=O)n1cnc(S(=O)(=O)C(F)(F)SCC)n1 [Example 54] | 300 | [empty] | 100 g/ha | [empty] | 300 g/ha | [empty] | [empty] | [empty] | – | – | –
CN(C(=O)n1cnc(S(=O)(=O)C(F)(F)C(F)(F)Br)n1)C1CCCCC1 [Example 79] | 300 | 300 g/ha | 300 g/ha | 300 g/ha | 30 g/ha | [empty] | 100 g/ha | 100 g/ha | 100 | 300 | 300
C=CCN(C)C(=O)n1cnc(S(=O)(=O)C(F)(F)C(F)(F)Br)n1 [Example 77] | – | [empty] | [empty] | [empty] | [empty] | [empty] | [empty] | [empty] | 300 | – | –
CCN(CC)C(=S)n1cnc(S(=O)(=O)C(F)F)n1 [Example 35] | – | 100 g/ha | 100 g/ha | 100 g/ha | 100 g/ha | [empty] | [empty] | 300 g/ha | – | – | –
CN(C(=O)n1cnc(S(=O)(=O)C(F)(F)Cl)n1)c1ccccc1 [Example 86] | – | 300 g/ha | [empty] | 300 g/ha | 100 g/ha | 300 g/ha | [empty] | 100 g/ha | – | – | –
O=C(N1CCOCC1)n1cnc(S(=O)(=O)C(F)F)n1 [Example 25] | – | 300 g/ha | [empty] | [empty] | [empty] | [empty] | [empty] | 300 g/ha | – | – | –
C=CCN(C)C(=O)n1cnc(S(=O)(=O)C(F)(F)SCC)n1 [Example 53] | 300 | 300 g/ha | [empty] | [empty] | [empty] | [empty] | [empty] | [empty] | 300 | – | 300
CN(Cc1ccccc1)C(=O)n1cnc(S(=O)(=O)C(F)(F)C(F)(F)Br)n1 [Example 80] | 300 | [empty] | [empty] | [empty] | [empty] | [empty] | [empty] | [empty] | – | – | 300
